Converted amounts (≈) assume the structure as drawn. “And” between values parts separate entries of the source, which are not always exact repeats. Identical values can stand only once.
Legend:
Type in all cases: physicochemical
[1] = Solubility of KDR2-2 in different media
[2] = Particle size of KDR2-2 API before and after pulverization (Malvern); details: for Particle size Dv (10) / Particle size Dv (50) / Particle size Dv (90): dry method (Mastersizer 3000); for D10 (μm) / D50 (μm) / D90 (μm): listed as KDR2-2 API
Procedure: Particle sizes: KDR2-2 is a poorly soluble drug with large particle sizes. The drug substance should be micronized to meet the quality standards of KDR2-2 Suspension Eye Drop. The result of microscopic observation of KDR2-2 (Batch #CK0120554-02-03P-01-32-01) in 1% Kolliphor® HS 15 is shown in FIG. 1, and the particle sizes of KDR2-2 (Batch #CK0120554-02-03P-01-32-01) in 1% Kolliphor® HS 15 were measured by malvern and is presented in Table 4.
(§1) The drug particle size for suspension eye drops should be reduced to level <10 μm in an attempt to avoid excessive lacrimation, the micronization process of drug substance was studied. The micronization process parameters of the jet are: injection pressure is 5 bar; crushing pressure is 3 bar. The particle size and distribution of the KDR2-2 API were measured before and after pulverization, to determine whether the API satisfies the formulation requirements after pulverization.
as §1, with “studied. Certain amount of KDR2-2 API was taken and fed into a jet mill.” for “studied.”, “bar; the media for micronization is air.” for “bar.”, “was” for “were”, “pulverization using the dry method (Mastersizer 3000, Malvern),” for “pulverization,”

[3] = API content/purity by liquid chromatography before and after pulverization; details: for HPLC peak (percentage of peak area), Impurity 1: Impurity 1 = Intermediate A; for HPLC peak (percentage of peak area), Impurity 2: Impurity 2 = Intermediate B
Procedure: API content was determined by liquid chromatography, Diamonsil® plus-C18 column (4.6×150 mm, […]), mobile phase: acetonitrile (with 0.2‰ trifluoroacetic acid):water (with 0.2‰ trifluoroacetic acid), acetonitrile gradient 5-95%, time: 17 min, column temperature 20° C., detection wavelength 254 nm. The results are shown as follows and in FIGS. 5A-5B: […]

[4] = KDR2-2 API after micronization (jet mill)
[5] = KDR2-2 API before micronization
[6] = after pulverization (jet mill, 5 bar/3 bar)
[7] = before pulverization, in 1% Kolliphor® HS 15, batch CK0120554-02-03P-01-32-01

- solubility ([1]; acetone, organic solvent or mixture): 7700 to 11500 µg/mL (≈ 18.1 to 27 mM)
- solubility ([1]; acetone/water, aqueous with cosolvent or surfactant or cyclodextrin): 7300 to 11000 µg/mL (≈ 17.2 to 25.9 mM)
- solubility ([1]; acetonitrile, organic solvent or mixture): 1700 to 1900 µg/mL (≈ 4 to 4.47 mM)
- solubility ([1]; chloroform, organic solvent or mixture): < 1100 µg/mL
- solubility ([1]; dimethylsulfoxide, organic solvent or mixture): > 28000 µg/mL
- solubility ([1]; ethanol, organic solvent or mixture): 2400 to 2700 µg/mL (≈ 5.64 to 6.35 mM)
- solubility ([1]; ethyl acetate, organic solvent or mixture): 3800 to 4600 µg/mL (≈ 8.93 to 10.8 mM)
- solubility ([1]; iso-propyl alcohol, organic solvent or mixture): < 1100 µg/mL
- solubility ([1]; methanol, organic solvent or mixture): 6300 to 9500 µg/mL (≈ 14.8 to 22.3 mM)
- solubility ([1]; methyl isobutyl ketone, organic solvent or mixture): 1800 to 2200 µg/mL (≈ 4.23 to 5.17 mM)
- solubility ([1]; methyl tert-butyl ether, organic solvent or mixture): < 1200 µg/mL
- solubility ([1]; tetrahydrofuran, organic solvent or mixture): > 18000 µg/mL
- solubility ([1]; toluene, organic solvent or mixture): < 900 µg/mL
- solubility ([1]; water): < 1100 µg/mL
- Particle size Dv (10) [2, 4]: 0.304 μm
- Particle size Dv (50) [2, 4]: 1.75 μm
- Particle size Dv (90) [2, 4]: 3.83 μm
- Particle size Dv (10) [2, 5]: 2.33 μm
- Particle size Dv (50) [2, 5]: 10.5 μm
- Particle size Dv (90) [2, 5]: 472 μm
- D10 (μm) [2, 6]: 0.957 μm and 0.949 μm and 0.946 μm
- D50 (μm) [2, 6]: 3.55 μm and 3.46 μm and 3.41 μm
- D90 (μm) [2, 6]: 8.03 μm and 7.59 μm and 7.47 μm
- D10 (μm) [2, 7]: 55.9 μm and 33.0 μm and 45.5 μm
- D50 (μm) [2, 7]: 162 μm and 105 μm and 138 μm
- D90 (μm) [2, 7]: 375 μm and 292 μm and 353 μm
- HPLC peak (percentage of peak area), KDR2-2 ([3]; KDR2-2 API after micronization): Peak area % = 99.839%
- HPLC peak (percentage of peak area), Impurity 1 ([3]; KDR2-2 API after micronization): Peak area % = 0.085%
- HPLC peak (percentage of peak area), Impurity 2 ([3]; KDR2-2 API after micronization): Peak area % = 0.075%
- HPLC peak (percentage of peak area), KDR2-2 [3, 5]: Peak area % = 99.820%
- HPLC peak (percentage of peak area), Impurity 1 [3, 5]: Peak area % = 0.08%
- HPLC peak (percentage of peak area), Impurity 2 [3, 5]: Peak area % = 0.101%
Structure (SMILES): Nc1nccc(Oc2ccc3c(C(=O)Nc4cccc(C(F)(F)F)c4)cccc3n2)n1 [KDR2-2, 2-(2-Aminopyrimidin-4-yloxy)-N-(3-(trifluoromethyl)phenyl)quinoline-5-carboxamide]

— US12721809B2, “Formulation for treating ophthalmic conditions” (Guangzhou KangRui Biological Pharmaceutical Technology Co., …, priority 2021, dated 2026)
